Values joined by “and” are separate entries in the source; they are usually repeats but may differ in a detail not shown here. Equal entries are not always repeated. Where two headings read alike, the source gives them in different places.
Legend:
Test in all cases: SafetyScreen87 panel
[1] = molecular target: T1, Y1 (h) (agonist radioligand) (Homo sapiens, UniProt P25929); conditions: read-out: % Inhibition of Control Specific Binding (1st, 2nd, Mean); 1.0E-06 M
T1 construct: purchased DiscoverX KINOMEscan scanEDGE; Eurofins Cerep SafetyScreen87
Experimental: (§1) The possibility of KDS12025 on kinase off-target, the KINOMEscan panel of scanEDGE assay was conducted in DiscoverX (CA, USA) using a site-directed competition binding with the test compounds. The assay results are given in Supplementary Table 4 and experimental information is available on the DiscoverX web page (www.discoverx.com). Moreover, the Delta SafetyScreen87 panel assay was conducted in Eurofins Discovery (Cerep, France). The assay results are given in Supplementary Table 5 and experimental information is available on the DiscoverX web page (https://www.eurofinsdiscoveryservices.com).

[2] = molecular target: T2, 5-HT3 (h) (antagonist radioligand) (Homo sapiens, UniProt P46098); conditions: 1.0E-06 M; read-out: % Inhibition of Control Specific Binding (1st, 2nd, Mean)
T2 construct: purchased DiscoverX KINOMEscan scanEDGE; Eurofins Cerep SafetyScreen87
Experimental: as §1

[3] = molecular target: T3, beta 2 (h) (antagonist radioligand) (Homo sapiens, UniProt P07550)
T3 construct: purchased DiscoverX KINOMEscan scanEDGE; Eurofins Cerep SafetyScreen87
Experimental: as §1

[4] = test system: glycine (strychnine-sensitive) (antagonist radioligand); conditions: 1.0E-06 M, read-out: % Inhibition of Control Specific Binding (1st, 2nd, Mean)
Experimental: as §1

[5] = molecular target: T4, MC4 (h) (agonist radioligand) (Homo sapiens, UniProt P32245); conditions: 1.0E-06 M; read-out: % Inhibition of Control Specific Binding (1st, 2nd, Mean)
T4 construct: purchased DiscoverX KINOMEscan scanEDGE; Eurofins Cerep SafetyScreen87
Experimental: as §1

[6] = molecular target: T5, 5-HT2C (h) (antagonist radioligand) (Homo sapiens, UniProt P28335); conditions: 1.0E-06 M; mean; read-out: % Inhibition of Control Specific Binding (1st, 2nd, Mean)
T5 construct: purchased DiscoverX KINOMEscan scanEDGE; Eurofins Cerep SafetyScreen87
Experimental: as §1

[7] = molecular target: T6, D1 (h) (antagonist radioligand) (Homo sapiens, UniProt P21728); conditions: 1.0E-06 M, read-out: % Inhibition of Control Specific Binding (1st, 2nd, Mean)
T6 construct: purchased DiscoverX KINOMEscan scanEDGE; Eurofins Cerep SafetyScreen87
Experimental: as §1

[8] = molecular target: T7, M2 (h) (antagonist radioligand) (Homo sapiens, UniProt P08172); conditions: 1.0E-06 M; mean; read-out: % Inhibition of Control Specific Binding (1st, 2nd, Mean)
T7 construct: purchased DiscoverX KINOMEscan scanEDGE; Eurofins Cerep SafetyScreen87
Experimental: as §1

[9] = molecular target: T8, CCR1 (h) (agonist radioligand) (Homo sapiens, UniProt P32246)
T8 construct: purchased DiscoverX KINOMEscan scanEDGE; Eurofins Cerep SafetyScreen87
Experimental: as §1

[10] = molecular target: T9, M1 (h) (antagonist radioligand) (Homo sapiens, UniProt P11229); conditions: 1.0E-06 M; mean; read-out: % Inhibition of Control Specific Binding (1st, 2nd, Mean)
T9 construct: purchased DiscoverX KINOMEscan scanEDGE; Eurofins Cerep SafetyScreen87
Experimental: as §1

[11] = molecular target: T10, 5-HT2A (h) (agonist radioligand) (Homo sapiens, UniProt P28223); conditions: 1.0E-06 M; mean; read-out: % Inhibition of Control Specific Binding (1st, 2nd, Mean)
T10 construct: purchased DiscoverX KINOMEscan scanEDGE; Eurofins Cerep SafetyScreen87
Experimental: as §1

[12] = molecular target: T11, beta 1 (h) (agonist radioligand) (Homo sapiens, UniProt P08588); conditions: 1.0E-06 M, read-out: % Inhibition of Control Specific Binding (1st, 2nd, Mean)
T11 construct: purchased DiscoverX KINOMEscan scanEDGE; Eurofins Cerep SafetyScreen87
Experimental: as §1

[13] = molecular target: T12, hERG potassium channel (Homo sapiens, UniProt Q12809); conditions: human, probe [3H] Dofetilide, 1.0E-06 M; read-out: % Inhibition of Control Specific Binding (1st, 2nd, Mean)
T12 construct: Eurofins Discovery (Cerep, France) SafetyScreen87 panel
Experimental: as §1

[14] = molecular target: T13, GABAA1 (h) (alpha 1,beta 2,gamma 2) (agonist radioligand) (Homo sapiens, UniProt P14867+P47870); conditions: 1.0E-06 M, read-out: % Inhibition of Control Specific Binding (1st, 2nd, Mean)
T13 construct: purchased DiscoverX KINOMEscan scanEDGE; Eurofins Cerep SafetyScreen87
Experimental: as §1

[15] = test system: Ca2+ channel (L, verapamil site) (phenylalkylamine) (antagonist radioligand); conditions: 1.0E-06 M, read-out: % Inhibition of Control Specific Binding (1st, 2nd, Mean)
Experimental: as §1

[16] = molecular target: T14, adenosine transporter (antagonist radioligand) (Cavia porcellus, UniProt H0V4R7)
T14 construct: Eurofins Discovery (Cerep, France) SafetyScreen87 panel
Experimental: as §1

[17] = molecular target: T15, CB1 (h) (agonist radioligand) (Homo sapiens, UniProt P21554); conditions: 1.0E-06 M, read-out: % Inhibition of Control Specific Binding (1st, 2nd, Mean)
T15 construct: purchased DiscoverX KINOMEscan scanEDGE; Eurofins Cerep SafetyScreen87
Experimental: as §1

[18] = molecular target: T16, D2L (h) (antagonist radioligand) (Homo sapiens, UniProt P14416); conditions: 1.0E-06 M, read-out: % Inhibition of Control Specific Binding (1st, 2nd, Mean)
T16 construct: purchased DiscoverX KINOMEscan scanEDGE; Eurofins Cerep SafetyScreen87
Experimental: as §1

[19] = test system: glycine (strychnine-insensitive) (antagonist radioligand); conditions: 1.0E-06 M; read-out: % Inhibition of Control Specific Binding (1st, 2nd, Mean)
Experimental: as §1

[20] = molecular target: T17, H1 (h) (antagonist radioligand) (Homo sapiens, UniProt P35367); conditions: 1.0E-06 M; mean; read-out: % Inhibition of Control Specific Binding (1st, 2nd, Mean)
T17 construct: purchased DiscoverX KINOMEscan scanEDGE; Eurofins Cerep SafetyScreen87
Experimental: as §1

[21] = molecular target: T18, mGluR5 (h) (agonist radioligand) (Homo sapiens, UniProt P41594); conditions: 1.0E-06 M, read-out: % Inhibition of Control Specific Binding (1st, 2nd, Mean)
T18 construct: purchased DiscoverX KINOMEscan scanEDGE; Eurofins Cerep SafetyScreen87
Experimental: as §1

[22] = molecular target: T19, ETA (h) (agonist radioligand) (Homo sapiens, UniProt P25101)
T19 construct: purchased DiscoverX KINOMEscan scanEDGE; Eurofins Cerep SafetyScreen87
Experimental: as §1

[23] = molecular target: T20, H2 (h) (antagonist radioligand) (Homo sapiens, UniProt P25021); conditions: read-out: % Inhibition of Control Specific Binding (1st, 2nd, Mean); 1.0E-06 M
T20 construct: purchased DiscoverX KINOMEscan scanEDGE; Eurofins Cerep SafetyScreen87
Experimental: as §1

[24] = molecular target: T21, PAF (h) (agonist radioligand) (Homo sapiens, UniProt P25105); conditions: 1.0E-06 M; read-out: % Inhibition of Control Specific Binding (1st, 2nd, Mean)
T21 construct: purchased DiscoverX KINOMEscan scanEDGE; Eurofins Cerep SafetyScreen87
Experimental: as §1

[25] = molecular target: T22, dopamine transporter (h) (antagonist radioligand) (Homo sapiens, UniProt Q01959); conditions: 1.0E-06 M, read-out: % Inhibition of Control Specific Binding (1st, 2nd, Mean)
T22 construct: Eurofins Discovery (Cerep, France) SafetyScreen87 panel
Experimental: as §1

[26] = molecular target: T23, D2S (h) (agonist radioligand) (Homo sapiens, UniProt P14416); conditions: 1.0E-06 M, read-out: % Inhibition of Control Specific Binding (1st, 2nd, Mean)
T23 construct: purchased DiscoverX KINOMEscan scanEDGE; Eurofins Cerep SafetyScreen87
Experimental: as §1

[27] = molecular target: T24, norepinephrine transporter (h) (antagonist radioligand) (Homo sapiens, UniProt P23975); conditions: 1.0E-06 M, read-out: % Inhibition of Control Specific Binding (1st, 2nd, Mean)
T24 construct: Eurofins Discovery (Cerep, France) SafetyScreen87 panel
Experimental: as §1

[28] = test system: NMDA (antagonist radioligand); conditions: 1.0E-06 M, read-out: % Inhibition of Control Specific Binding (1st, 2nd, Mean)
Experimental: as §1

[29] = molecular target: T25, Ca2+ channel (N) (antagonist radioligand) (Rattus norvegicus, UniProt Q02294)
T25 construct: Eurofins Discovery (Cerep, France) SafetyScreen87 panel
Experimental: as §1

[30] = molecular target: T26, kappa (h) (KOP) (agonist radioligand) (Homo sapiens, UniProt P41145); conditions: 1.0E-06 M; mean; read-out: % Inhibition of Control Specific Binding (1st, 2nd, Mean)
T26 construct: purchased DiscoverX KINOMEscan scanEDGE; Eurofins Cerep SafetyScreen87
Experimental: as §1

[31] = 1.0E-06 M; read-out: % Inhibition of Control Specific Binding (1st, 2nd, Mean)
[32] = read-out: % Inhibition of Control Specific Binding (1st, 2nd, Mean); 1.0E-06 M

T15 sequence (P21554 whole entry): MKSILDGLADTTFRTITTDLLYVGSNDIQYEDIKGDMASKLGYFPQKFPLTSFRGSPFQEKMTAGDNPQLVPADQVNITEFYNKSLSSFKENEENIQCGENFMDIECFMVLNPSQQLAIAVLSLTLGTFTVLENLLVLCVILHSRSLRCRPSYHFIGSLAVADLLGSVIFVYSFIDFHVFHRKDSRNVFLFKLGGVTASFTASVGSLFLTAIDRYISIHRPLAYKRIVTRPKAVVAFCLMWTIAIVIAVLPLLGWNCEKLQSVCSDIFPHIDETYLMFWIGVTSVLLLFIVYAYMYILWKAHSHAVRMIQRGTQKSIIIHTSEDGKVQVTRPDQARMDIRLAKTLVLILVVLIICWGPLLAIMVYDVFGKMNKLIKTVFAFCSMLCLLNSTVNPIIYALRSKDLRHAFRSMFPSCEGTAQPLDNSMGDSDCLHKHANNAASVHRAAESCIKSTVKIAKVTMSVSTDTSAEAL
T16 sequence (P14416 whole entry): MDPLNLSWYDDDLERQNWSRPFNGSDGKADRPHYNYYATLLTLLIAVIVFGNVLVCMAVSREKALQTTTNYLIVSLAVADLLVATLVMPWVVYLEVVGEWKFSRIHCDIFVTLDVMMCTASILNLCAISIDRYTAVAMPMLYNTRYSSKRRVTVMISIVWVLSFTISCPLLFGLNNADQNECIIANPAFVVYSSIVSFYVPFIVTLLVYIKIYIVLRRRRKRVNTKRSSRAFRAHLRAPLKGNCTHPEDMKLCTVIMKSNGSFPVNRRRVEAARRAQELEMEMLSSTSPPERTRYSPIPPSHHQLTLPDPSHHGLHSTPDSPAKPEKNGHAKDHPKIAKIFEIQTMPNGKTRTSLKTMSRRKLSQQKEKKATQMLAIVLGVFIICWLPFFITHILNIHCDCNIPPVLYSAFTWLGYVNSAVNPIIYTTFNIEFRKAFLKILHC
T23 sequence (P14416 1-414 isoform P14416-2): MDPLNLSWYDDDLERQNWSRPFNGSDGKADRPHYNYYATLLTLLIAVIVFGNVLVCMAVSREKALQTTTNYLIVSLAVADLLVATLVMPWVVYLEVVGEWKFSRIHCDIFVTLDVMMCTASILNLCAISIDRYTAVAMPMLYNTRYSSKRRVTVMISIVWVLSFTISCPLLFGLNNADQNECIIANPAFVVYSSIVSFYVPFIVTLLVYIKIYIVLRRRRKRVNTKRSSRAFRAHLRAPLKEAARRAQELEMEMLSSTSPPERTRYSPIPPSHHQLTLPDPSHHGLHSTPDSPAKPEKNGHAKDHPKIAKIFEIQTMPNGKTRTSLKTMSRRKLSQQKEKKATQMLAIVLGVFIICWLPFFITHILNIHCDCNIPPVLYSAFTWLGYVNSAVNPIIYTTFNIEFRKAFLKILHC
T6 sequence (P21728 whole entry): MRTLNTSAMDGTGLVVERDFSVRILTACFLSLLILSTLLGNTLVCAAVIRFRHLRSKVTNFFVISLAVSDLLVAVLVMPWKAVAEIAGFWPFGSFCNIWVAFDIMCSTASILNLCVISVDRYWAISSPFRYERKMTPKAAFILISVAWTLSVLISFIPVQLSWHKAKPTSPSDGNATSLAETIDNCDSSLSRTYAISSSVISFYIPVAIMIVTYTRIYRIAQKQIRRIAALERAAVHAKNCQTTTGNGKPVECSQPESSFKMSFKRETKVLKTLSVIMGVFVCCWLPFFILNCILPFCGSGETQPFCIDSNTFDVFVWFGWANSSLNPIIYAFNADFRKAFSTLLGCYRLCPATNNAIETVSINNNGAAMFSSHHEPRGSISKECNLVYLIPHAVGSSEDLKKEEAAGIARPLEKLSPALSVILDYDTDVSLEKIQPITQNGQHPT
T13 sequence (P14867 28-456): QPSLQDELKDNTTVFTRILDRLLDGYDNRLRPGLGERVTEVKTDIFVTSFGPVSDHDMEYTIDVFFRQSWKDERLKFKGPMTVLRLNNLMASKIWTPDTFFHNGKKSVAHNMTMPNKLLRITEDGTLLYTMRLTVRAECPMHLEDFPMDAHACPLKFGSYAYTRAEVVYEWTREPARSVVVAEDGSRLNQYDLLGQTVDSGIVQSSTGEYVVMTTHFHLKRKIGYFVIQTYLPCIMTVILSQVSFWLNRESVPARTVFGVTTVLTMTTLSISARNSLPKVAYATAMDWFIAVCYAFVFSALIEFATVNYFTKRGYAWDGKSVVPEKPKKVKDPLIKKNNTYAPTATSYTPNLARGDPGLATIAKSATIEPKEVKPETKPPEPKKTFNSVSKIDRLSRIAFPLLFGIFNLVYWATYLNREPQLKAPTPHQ
T13 sequence (P47870 25-512 limits assumed): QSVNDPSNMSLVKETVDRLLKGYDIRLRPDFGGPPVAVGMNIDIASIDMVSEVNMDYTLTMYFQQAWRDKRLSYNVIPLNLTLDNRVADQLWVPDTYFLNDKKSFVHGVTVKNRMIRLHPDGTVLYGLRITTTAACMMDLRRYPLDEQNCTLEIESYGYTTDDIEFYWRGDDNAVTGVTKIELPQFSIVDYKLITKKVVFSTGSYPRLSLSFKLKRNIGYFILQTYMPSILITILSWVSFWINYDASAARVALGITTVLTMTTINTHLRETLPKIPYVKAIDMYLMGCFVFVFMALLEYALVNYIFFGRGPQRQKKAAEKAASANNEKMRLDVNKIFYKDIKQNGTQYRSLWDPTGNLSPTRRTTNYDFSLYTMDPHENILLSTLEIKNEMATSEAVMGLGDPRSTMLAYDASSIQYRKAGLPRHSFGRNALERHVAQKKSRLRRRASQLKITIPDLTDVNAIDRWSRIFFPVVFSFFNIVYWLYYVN
T13 sequence (P18507 40-467 partner limits assumed): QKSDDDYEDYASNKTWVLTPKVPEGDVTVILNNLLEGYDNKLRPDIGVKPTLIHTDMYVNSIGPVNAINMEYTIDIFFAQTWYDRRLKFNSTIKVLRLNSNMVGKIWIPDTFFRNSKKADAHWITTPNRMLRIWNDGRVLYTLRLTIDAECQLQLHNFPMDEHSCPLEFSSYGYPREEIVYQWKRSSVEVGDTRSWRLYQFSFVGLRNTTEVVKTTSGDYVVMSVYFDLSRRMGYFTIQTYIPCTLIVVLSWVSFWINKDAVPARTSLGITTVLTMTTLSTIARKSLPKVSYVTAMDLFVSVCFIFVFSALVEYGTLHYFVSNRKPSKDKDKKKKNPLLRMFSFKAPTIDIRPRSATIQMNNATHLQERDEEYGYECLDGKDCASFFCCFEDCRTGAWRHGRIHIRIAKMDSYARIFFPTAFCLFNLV
T11 sequence (P08588 whole entry): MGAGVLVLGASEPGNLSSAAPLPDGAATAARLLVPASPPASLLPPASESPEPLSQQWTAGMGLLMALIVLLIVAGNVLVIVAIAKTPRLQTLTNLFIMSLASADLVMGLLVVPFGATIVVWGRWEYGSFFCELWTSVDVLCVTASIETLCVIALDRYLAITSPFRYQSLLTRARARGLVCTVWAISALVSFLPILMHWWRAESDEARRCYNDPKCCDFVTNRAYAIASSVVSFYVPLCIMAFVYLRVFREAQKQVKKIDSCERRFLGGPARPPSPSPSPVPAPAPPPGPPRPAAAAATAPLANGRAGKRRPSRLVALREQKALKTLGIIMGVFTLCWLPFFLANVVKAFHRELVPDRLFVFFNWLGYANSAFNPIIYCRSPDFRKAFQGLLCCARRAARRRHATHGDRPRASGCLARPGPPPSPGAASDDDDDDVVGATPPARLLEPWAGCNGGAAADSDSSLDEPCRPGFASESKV
T18 sequence (P41594 21-1212): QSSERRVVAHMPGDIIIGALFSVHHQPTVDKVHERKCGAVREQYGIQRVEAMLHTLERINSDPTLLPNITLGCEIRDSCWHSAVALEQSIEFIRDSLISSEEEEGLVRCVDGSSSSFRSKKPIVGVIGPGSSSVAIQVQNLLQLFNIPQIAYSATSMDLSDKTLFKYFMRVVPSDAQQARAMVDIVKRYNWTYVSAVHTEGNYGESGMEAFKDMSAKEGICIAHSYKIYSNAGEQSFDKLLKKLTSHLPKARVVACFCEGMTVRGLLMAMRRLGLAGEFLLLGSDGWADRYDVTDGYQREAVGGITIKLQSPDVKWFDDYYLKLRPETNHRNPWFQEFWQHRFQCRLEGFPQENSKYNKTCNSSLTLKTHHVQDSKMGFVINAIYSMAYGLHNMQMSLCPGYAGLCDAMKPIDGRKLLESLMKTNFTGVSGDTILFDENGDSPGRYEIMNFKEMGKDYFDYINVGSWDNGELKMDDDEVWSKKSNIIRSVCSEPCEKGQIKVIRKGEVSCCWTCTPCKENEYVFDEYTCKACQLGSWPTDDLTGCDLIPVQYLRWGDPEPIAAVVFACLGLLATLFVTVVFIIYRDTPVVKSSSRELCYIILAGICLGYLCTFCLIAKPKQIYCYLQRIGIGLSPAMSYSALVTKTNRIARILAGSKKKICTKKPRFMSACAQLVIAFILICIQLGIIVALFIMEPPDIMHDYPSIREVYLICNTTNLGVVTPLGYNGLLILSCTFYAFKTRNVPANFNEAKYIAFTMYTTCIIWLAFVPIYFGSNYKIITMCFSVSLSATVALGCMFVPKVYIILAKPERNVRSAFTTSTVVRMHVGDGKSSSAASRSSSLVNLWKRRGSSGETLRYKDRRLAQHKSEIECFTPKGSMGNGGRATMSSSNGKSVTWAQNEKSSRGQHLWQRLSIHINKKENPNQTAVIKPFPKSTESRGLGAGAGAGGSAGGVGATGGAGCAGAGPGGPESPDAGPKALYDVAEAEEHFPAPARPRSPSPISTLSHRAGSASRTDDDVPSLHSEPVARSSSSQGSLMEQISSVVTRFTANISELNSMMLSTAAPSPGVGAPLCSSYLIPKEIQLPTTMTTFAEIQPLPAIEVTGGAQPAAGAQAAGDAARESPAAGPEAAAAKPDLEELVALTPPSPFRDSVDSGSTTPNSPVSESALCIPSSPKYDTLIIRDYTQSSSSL

SMILES: CNc1ccc(NCCc2ccccc2OC)cc1.Cl [KDS12025, N^1-(2-methoxyphenethyl)-N^4-methylbenzene-1,4-diamine hydrochloride salt]
- activity [1]: 104%
- activity [2]: 91.4% and 100%
- activity [3, 31]: 104%
- activity [3, 32]: 96.8%
- activity ([4]; mean): 118%
- activity [4]: 117% and 118%
- activity [5]: 88.7%
- activity [6]: 76.4%
- activity ([7]; mean): 97.5%
- activity [7]: 91.1% and 104%
- activity [8]: 107%
- activity [9, 31]: 90.4%
- activity [9, 32]: 88.2%
- activity [10]: 91.8%
- activity [11]: 81.8%
- activity ([12]; mean): 90.5%
- activity [12]: 86.7% and 94.3%
- activity at 1 µM [13]: 70.3%
- activity ([14]; mean): 95.1%
- activity [14]: 92.4% and 97.8%
- activity ([15]; mean): 98%
- activity [15]: 101% and 95.5%
- activity [16, 31]: 101%
- activity [16, 32]: 98.6%
- activity ([17]; mean): 80%
- activity [17]: 81.7% and 78.4%
- activity ([18]; mean): 84%
- activity [18]: 74.8% and 93.2%
- activity [19]: 96.8% and 100%
- activity [20]: 88.2%
- activity ([21]; mean): 115%
- activity [21]: 114% and 116%
- activity [22, 31]: 108%
- activity [22, 32]: 90.8%
- activity [23]: 94.2%
- activity [24]: 106%
- activity ([25]; mean): 107%
- activity [25]: 102% and 111%
- activity ([26]; mean): 61.9%
- activity [26]: 64% and 59.8%
- activity ([27]; mean): 93.3%
- activity [27]: 89.5%
- activity ([28]; mean): 98.7%
- activity [28]: 97.8% and 99.6%
- activity [29, 31]: 118%
- activity [29, 32]: 104%
- activity [30]: 82.7%
